# In US5418224A, “4,13-dioxabicyclo[8.2.1]tridecenone compounds and pharmaceutical compositions containing them” (Kali-Chemie Pharma GmbH, priority 1992, dated 1995):
# What was measured:
# [1] = target: T1, motilin receptors (Oryctolagus cuniculus, UniProt G1T803); assay: Binding capacity to motilin receptors: displacement of 125-iodine-labelled motilin, rabbit antrum crude membrane preparation; conditions: rabbit antrum crude membrane fraction, iodinated motilin 50 pM, 30° C., 60 minutes; read-out: pIC50 value (50% inhibition of the specific binding of the iodinated motilin to the motilin receptors) (converted)
# T1 construct: fraction of a tissue homogenate from rabbit antrum; from tissue; host or cells: rabbit antrum, mucosa removed, crude membrane preparation
# Method: 1. Determination of the binding capacity of the test substances to motilin receptors.
# The affinity of the compounds of the formula I for motilin receptors is measured in vitro on a fraction of a tissue homogenate from rabbit antrum. The displacement of radioactively labelled iodinated motilin from motilin receptor binding by the test substances is determined.
# The receptor binding studies were carried out by a modification of the method of Borman et al. (Regulatory Peptides 15 (1986), 143-153). To prepare the ^125 iodine-labelled motilin, motilin is iodinated enzymatically using lactoperoxidase in a known manner, for example analogously to the method described by Bloom et al. (Scand. J. Gastroenterol. 11 (1976) 47-52). […]
# For the binding test, 200 μl of the crude membrane fraction (0.5-1 mg of protein) in 400 μl of a buffer solution A (50 mM tris-HCl buffer, 1.5% BSA, 10 mM MgCl2, pH 8.0) were incubated with 100 μl of iodinated motilin diluted in buffer solution B (10 mM tris-HCl buffer, 1% BSA, pH 8) (final concentration 50 pM) at 30° C. for 60 minutes. […] The residue obtained as pellet after the centrifugation was washed with buffer solution B and counted in a gamma counter. […] From this the corresponding pIC50 value was calculated.
# [2] = system: beagle dogs; assay: In vivo determination of the effect on the rate of gastric emptying
# Method: 2. In vivo determination of the effect of the substances on the rate of gastric emptying.
# The determination of the rate of gastric emptying was carried out on beagle dogs which, before the test, had undergone surgical establishment of an esophagus fistula and implantation of a duodenal cannula. 15 minutes after duodenal administration of the test substances, the fasting conscious dogs were given 285 g of a semisolid caloric test meal through the esophagus fistula. The contents emptied from the stomach were collected through the duodenal cannula at 15-minute intervals. From the collected amounts of stomach contents, the time within which 50% emptying of the stomach takes place was calculated. The time is reported as measure of gastric emptying.
# [3] = system: beagle dogs; assay: In vivo determination of the effect on the resting tone of the esophagus sphincter (pull-through manometry); conditions: conscious fasting beagle dogs, 0.251 μmole/kg intraduodenally
# Method: 3. In vivo determination of the effect of the substances on the resting tone of the esophagus sphincter.
# This determination is carried out on trained, conscious, fasting beagle dogs which, before the test, have each been given an esophagus fistula and a duodenal cannula. The pressure of the lower esophagus sphincter is measured by means of a perfused catheter system which has a lateral opening and which is connected to a pressure transducer and a recorder. The catheter is passed through the esophagus fistula into the stomach and then slowly withdrawn manually (=pull-through manometry). A peak is recorded when the catheter part with the lateral opening passes through the high-pressure zone of the lower esophagus sphincter. The pressure in mm Hg is determined from this peak.
# In this way, initially the basal pressure of the esophagus sphincter is determined as control value. Subsequently, the test substance is administered intraduodenally and, after 15 minutes, the pressure at the lower esophagus sphincter is measured at 2-minute intervals for a period of 46 minutes. The increase in the pressure after administration of test substance compared with the previously determined basal pressure is calculated.
# T1 sequence (G1T803 1-400): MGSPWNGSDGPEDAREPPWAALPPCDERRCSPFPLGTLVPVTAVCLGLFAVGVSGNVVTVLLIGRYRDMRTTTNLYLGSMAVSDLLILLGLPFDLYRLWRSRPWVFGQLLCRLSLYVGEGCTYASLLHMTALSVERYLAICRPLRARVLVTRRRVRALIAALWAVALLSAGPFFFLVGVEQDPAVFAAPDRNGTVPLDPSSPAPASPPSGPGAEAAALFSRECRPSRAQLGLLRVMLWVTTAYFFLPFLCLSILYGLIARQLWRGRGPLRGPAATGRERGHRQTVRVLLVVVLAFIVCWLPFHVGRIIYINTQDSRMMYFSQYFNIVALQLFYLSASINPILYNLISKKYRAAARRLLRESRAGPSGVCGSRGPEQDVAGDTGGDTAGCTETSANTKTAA
structure (smiles),measurement,setting,value
"CC[C@@H](O)[C@@](C)(O)[C@@H]1OC(=O)[C@H](C)[C@@H](O[C@H]2C[C@@](C)(OC)[C@@H](O)[C@H](C)O2)[C@H](C)[C@@H](O[C@@H]2O[C@H](C)C[C@H](N(C)C(C)C)[C@H]2O)[C@@]2(C)CC(C)=C(O2)[C@@H]1C [Example 1, [2R,3R(2R',3R'),6R,7S,8S,9R,10R]-3-(2',3'-dihydroxypent-2'-yl)-7-[(2,6-dideoxy-3-C-methyl-3-0-methyl-α-L-ribo-hexopyranosyl)-oxy]-9-[(3,4,6-trideoxy-3-(N-methyl-N-isopropylamino)-β-D-xylo-hexopyranosyl)-oxy]-2,6,8,10,12-pentamethyl-4,13-dioxabicyclo[8.2.1]tridec-12-en-5-one]",IC50,[1],4.79 nM
same,effect on gastric emptying (in words),"[2]; beagle dogs, dose of 0.46 μmole/kg, duodenal administration",distinct stimulation of gastric emptying
same,time for 50% emptying of the stomach,"[2]; fasting conscious beagle dogs, 0.46 μmole/kg duodenal, 15 minutes before semisolid caloric test meal, control animal group 46 minutes",27 min
same,change of basal tone of the esophagus sphincter,[3]; compared with basal pressure,more than doubled
same,persistence of the effect on esophagus sphincter tone,[3]; throughout duration of the test,≥ 45 min
